Test results published in patent EP4140481A1, “PROTEIN-OLIGOMER BINDING AGENTS AND THERAPEUTIC USES THEREOF” (Galyan Bio, Inc., priority 2021, dated 2023).

Key:
[1] = molecular target: T1, Wild type (wt) α-Synuclein (Homo sapiens, UniProt P37840); test: Dynamic Light Scattering (DLS), induced aggregation; assay type: biochemical
T1 construct: purchased rPeptide, Watkinsville, Georgia S-1001-2

C. elegans = C. elegans lifespan assay (Automated Lifespan Machine); assay type: in vivo
Protocol: Experimental Design: The lifespan assay was initiated by expanding all replicate groups to more than 1000 worms, then synchronizing by bleaching and allowing larval worms to hatch and arrest. To eliminate the effect of bacterial metabolism and growth on lifespan, synchronized worms were only exposed to dead food bacteria. To suppress progeny, worms are transferred to media containing 5-Fluorodeoxyuridine (FUdR) within 54-60 hours post plating. Worms are inspected at 24 and48 hours after this transfer to confirm infertility. Finally, the worms are inspected for general health and morphology before transferring to scanner plates. The scanner plates are incubated for an additional 2 days and inspected again before loading on to scanners. To understand the physiological impact of either genetic variation or pharmacological treatment on aging, it is crucial to use quantitative models. The analysis of lifespan data is grounded in the study of two mathematical functions: the survival curve and the hazard function. The survival curve (Figure 54) describes the fraction of a tested population that remains alive over time. The hazard function (Figure 55) is related to the survival curve and provides an intuitive measure of the risk of death. This function describes the probability that atypical individual who is currently alive will soon die, providing a clear visualization of the way a treatment may change patterns in mortality. To obtain high-resolution lifespan data and eliminate confounding factors such as worm handling and operator bias, lifespan data was collected using an Automated Lifespan Machine (ALM). Three biological replicates, derived from synchronizing three independently-maintained lines of N2 worms, were distributed across scanner instruments. Images of the worms were then collected for the next 35 days with no interruption or manipulations. Some plates were excluded after quality checks, but plate number and worm counts for all replicates exceeded the threshold for statistical significance (Table 32, row 1).Lifespan data are represented as the percent of worms surviving over time and the profile of this curve can be modeled by the Kaplan-Meier Estimate of Survival function (Figure 54). The survival curves can be compared by several statistics including mean, median, and maximum lifespan (Table 32), as well as the age of worms at a specific percent survival (Table 34). However, to determine whether one treatment group lived longer than another, survival curves are holistically compared using a log-rank test (Table 33). In this study, all pairwise comparisons between conditions were statistically significant. Tables 32 to 34 detail the raw measurements, calculations, and statistical analysis related to the survival curve in Figure 54. Lifespan is counted with day 0 set at day 1 of adulthood. No death times are recorded until worms are placed on the scanner on day 8 so earlier deaths are excluded from calculations of mean and median. Median lifespan is equal to the time at which 50% of the subjects have died. Mean lifespan is calculated from the area under the survival curve. Maximum lifespan is equal to 95th percentile of lifespans in each group. C.I.: Confidence Interval. See Figure 55 and Table 33 for statistical analysis Table 33: Pairwise statistical analysis of survival curves.

[2] = Solubilization of Compound 4; assay type: physicochemical
LC3 = test: Autophagic flux (LC3 staining); assay type: cell-based, mouse
Protocol: Staining - Cells were permeabilized with 0.3% Triton X-100 in 4 °C PBS (pH 7.4 from ThermoFisher) for 10 minutes. Then the cells were washed two times with 4 °C PBS. Subsequently, cells are blocked with 3% NGS (normal goat serum from Thermo Fisher) in 4 ° C PBS for 1 hour. Cells were incubated with primary antibodies in blocking buffer (PBS, 3% NGS, 0.02% NaN3) over night at 4 °C. Primary antibodies were mouse antipolyglutamine monoclonal antibody 3B5H10 (Sigma-Aldrich) at 1:250 dilution and Guinea Pig anti-MAP2 polyclonal antibody (Synaptic Systems) at 1:500 dilution. […]
Fluorescence Imaging - Imaging sessions were performed on a confocal microscope system (Carl Zeiss Microscopy) equipped with a dual spinning disk unit (Yokogawa). […] The fluorescence images obtained of the immunofluorescence labelled tissue sections were quantified with the help of the "Image Processing and Analysis in Java" or short ImageJ software distributed under the GNU General Public License by the NIH (Rueden, C.T. et al., BMC Bioinformatics. 2017 Nov 29;18(1):529), i.e. the edition used was the Fiji distribution (Schindelin, J. et al., Nature methods. 2012 Jun 28;9(7):676-82). […]
Autophagic flux was calculated as the area stained with LC3 antibody per cell in STHdh 111/111 with autophagy inhibitor NH4CI minus area stained with LC3 antibody per cell in STHdh 111/111 without the autophagy inhibitor NH4CI.

| SMILES | oligomerization of wt α-Synuclein ([1]; Compound 4 solved in methanol) | % Volume, Peak 1 ([1]; by volume, 70 µM equimolar Compound 4 solved in methanol) | Age at 25% mortality (C. elegans; 200 nM) | Age at 50% mortality (C. elegans; 200 nM) | Age at 75% mortality (C. elegans; 200 nM) | Age at 90% mortality (C. elegans; 200 nM) | Age at 100% mortality (C. elegans; 200 nM) | Median lifespan (C. elegans; 200nM (vehicle control 24.3)) | Mean lifespan (C. elegans; 200nM (vehicle control 24.7)) | Maximum lifespan (C. elegans; 200nM (vehicle control 34.9), 95th percentile) | Age at 25% mortality (C. elegans; 2 µM) | Age at 50% mortality (C. elegans; 2 µM) | Age at 75% mortality (C. elegans; 2 µM) | Age at 90% mortality (C. elegans; 2 µM) | Age at 100% mortality (C. elegans; 2 µM) | Median lifespan (C. elegans; 2µM (vehicle control 24.3)) | solubility in DMSO ([2]; initial batch) | dissolved in water ([2]; second batch with an HCl modification) | autophagic flux (LC3; STHdh 111/111, LC3 area with NH4Cl minus without NH4Cl) | LC3 stained area (LC3; STHdh 111/111 neurons versus untreated, p < 0.001) |
| --- | --- | --- | --- | --- | --- | --- | --- | --- | --- | --- | --- | --- | --- | --- | --- | --- | --- | --- | --- | --- |
| CCc1c(C)[nH]c2ccc(C(=O)NCCN(CC)CC)cc12 [Compound 4, N-(2-(diethylamino)ethyl)-3-ethyl-2-methyl-1H-indole-5-carboxamide] | does not oligomerize | 99,4% | 21.42 days | 26.16 days | 29.57 days | 31.75 days | 39.46 days | 26.2 days | 25.7 | 33.7 days | 23.9 days | 27.54 days | 29.41 days | 31.23 days | 39.42 days | 27.6 days | limited solubility | ≥ 200 mM | – | – |
| Cc1[nH]c2ccc(C(=O)NCCN(C(C)C)C(C)C)cc2c1C [Compound 22] | – | – | – | – | – | – | – | – | – | – | – | – | – | – | – | – | – | – | positive autophagic flux | decreased |
